From article PMC6273138, “Inhibitory Effects of Aschantin on Cytochrome P450 and Uridine 5′-diphospho-glucuronosyltransferase Enzyme Activities in Human Liver Microsomes” (Molecules, 2016)

Tests used:
CYP2C9 [1] = target: T1, CYP2C9 (Homo sapiens, UniProt P11712); test: Mechanism-based (time- and concentration-dependent) inactivation of CYP2C9 in human liver microsomes; format: in vitro ADME; conditions: CYP2C9-catalyzed diclofenac 4′-hydroxylation
Description: (§1) The microsomes (1 mg/mL) were pre-incubated with various concentrations of aschantin in 50 mM potassium phosphate buffer (pH 7.4) in the presence of NADPH. Aliquots (10 µL) of the incubated mixtures were withdrawn at 5, 10, 15, and 20 min after incubation commenced and added to other tubes containing the CYP substrates (2 µM amodiaquine for CYP2C8, 10 µM diclofenac for CYP2C9, 100 µM [S]-mephenytoin for CYP2C19, or 2 µM midazolam for CYP3A4), 1 mM NADPH, 50 mM potassium phosphate buffer (pH 7.4), and 10 mM MgCl2, in 90 µL reaction mixtures. […] Aliquots (5 µL) of the diluted supernatants were analyzed by LC-MS/MS, as described above.

CYP2C19 [2] = target: T2, CYP2C19 (Homo sapiens, UniProt P33261); test: Mechanism-based (time- and concentration-dependent) inactivation of CYP2C19 in human liver microsomes; format: in vitro ADME; conditions: CYP2C19-mediated [S]-mephenytoin 4′-hydroxylation
Description: as §1

UGT1A1 = target: T3, UGT1A1 (Homo sapiens, UniProt P22309); test: UGT1A1-catalyzed SN-38 glucuronidation inhibition in pooled human liver microsomes; format: in vitro ADME; conditions: 0.5 µM SN-38, pooled human liver microsomes
T3 construct: using pooled human liver microsomes incubated with the cocktail of UGT substrates; tissue Corning Life Sciences 452161; host or cells: pooled human liver microsomes
T3 sequence (P22309 26-533): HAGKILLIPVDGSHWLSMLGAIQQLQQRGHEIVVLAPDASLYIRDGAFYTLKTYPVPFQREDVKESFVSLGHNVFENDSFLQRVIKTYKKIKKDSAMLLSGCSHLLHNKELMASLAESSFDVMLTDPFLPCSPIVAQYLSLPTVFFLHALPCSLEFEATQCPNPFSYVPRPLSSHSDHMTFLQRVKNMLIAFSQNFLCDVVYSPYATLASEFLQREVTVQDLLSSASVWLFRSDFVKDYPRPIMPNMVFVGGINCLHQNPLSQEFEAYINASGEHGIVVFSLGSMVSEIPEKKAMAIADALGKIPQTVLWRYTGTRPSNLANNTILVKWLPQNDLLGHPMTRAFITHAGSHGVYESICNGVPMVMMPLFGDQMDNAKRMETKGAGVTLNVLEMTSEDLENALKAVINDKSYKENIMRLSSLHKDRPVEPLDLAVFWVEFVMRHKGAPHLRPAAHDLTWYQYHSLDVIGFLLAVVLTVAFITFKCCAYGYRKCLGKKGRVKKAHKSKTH
Description: (§2) The extents of aschantin on UGT1A1, UGT1A3, UGT1A4, UGT1A6, UGT1A9, and UGT2B7 were evaluated by LC-MS/MS, using pooled human liver microsomes incubated with the cocktail of UGT substrates. The method was modified from that of Joo et al..
(§3) The metabolites formed from the six UGT cocktail substrates were simultaneously measured using the LC-MS/MS method. […] The mass spectrometer was equipped with an ESI source and was operated in both positive and negative ion modes. […] Each metabolite was quantified via SRM in the negative ion (chenodeoxycholic acid 24-acyl-β-glucuronide, 567.2 > 391.0; mycophenolic acid glucuronide, 495.2 > 318.9; propofol glucuronide, 353.3 > 177.1) and positive ion (SN-38 glucuronide, 569.0 > 393.0; trifluoperazine glucuronide, 584.2 > 408.1; N-acetylserotonin-β-D-glucuronide, 395.2 > 219.0; naloxone 3-β-D-glucuronide, 504.0 > 310.0; meloxicam, 352.0 > 115.1) modes.

UGT1A6 = target: T4, UGT1A6 (Homo sapiens, UniProt P19224); test: UGT1A6-catalyzed N-acetylserotonin glucuronidation inhibition in pooled human liver microsomes; format: in vitro ADME; conditions: 1 µM N-acetylserotonin
T4 construct: using pooled human liver microsomes incubated with the cocktail of UGT substrates; tissue Corning Life Sciences 452161; host or cells: pooled human liver microsomes
T4 sequence (P19224 27-532): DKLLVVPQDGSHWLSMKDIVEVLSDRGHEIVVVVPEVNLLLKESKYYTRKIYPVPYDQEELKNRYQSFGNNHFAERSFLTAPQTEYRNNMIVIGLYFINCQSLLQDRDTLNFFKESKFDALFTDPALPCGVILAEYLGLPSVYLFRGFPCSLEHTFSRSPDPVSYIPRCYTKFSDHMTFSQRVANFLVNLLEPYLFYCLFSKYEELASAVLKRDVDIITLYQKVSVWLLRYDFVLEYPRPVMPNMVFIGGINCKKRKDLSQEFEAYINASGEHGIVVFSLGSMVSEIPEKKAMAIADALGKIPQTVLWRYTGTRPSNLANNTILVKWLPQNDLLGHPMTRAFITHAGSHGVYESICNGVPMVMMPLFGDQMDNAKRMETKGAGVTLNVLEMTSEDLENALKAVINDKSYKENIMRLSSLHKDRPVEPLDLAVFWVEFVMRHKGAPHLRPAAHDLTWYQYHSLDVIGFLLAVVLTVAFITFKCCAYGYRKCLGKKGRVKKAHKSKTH
Description: as §2, §3

CYP2C9 [3] = target: T1, CYP2C9; test: CYP2C9-catalyzed diclofenac 4′-hydroxylase inhibition in pooled human liver microsomes; conditions: for IC50: CYP2C9 diclofenac 4′-hydroxylase, 10 µM diclofenac
Description: (§4) The degrees of inhibition (the IC50 values) of aschantin toward CYP1A2, CYP2A6, CYP2C8, CYP2C9, CYP2C19, CYP2D6, and CYP3A4 were evaluated using pooled human liver microsomes employing a cocktail of CYP substrates and liquid chromatography-tandem mass spectrometry (LC-MS/MS). […] After 3 min pre-incubation at 37 °C, the reactions were initiated by addition of NADPH and incubation proceeded for 15 min at 37 °C in a shaking water bath. The reaction was stopped by placing the tubes on ice and adding 100 µL amounts of ice-cold methanol containing internal standards (^13C2,^15N-acetaminophen for acetaminophen and N-desethylamodiaquine; d9-1′-hydroxybufuralol for 4′-hydroxydiclofenac; and 7-hydroxycoumarin, 4′-hydroxy-mephenytoin, 1′-hydroxybufuralol, and 1′-hydroxymidazolam). Then the incubation mixtures were centrifuged at 13,000× g for 4 min at 4 °C. All assays were performed in triplicate and the average values were used in calculations.
(§5) To this end, we employed a tandem mass spectrometer (TSQ Quantum Access, Thermo Scientific, San Jose, CA, USA) coupled to a Nanospace SI-2 LC system (Shiseido, Tokyo, Japan). The column and autosampler temperatures were 50 °C and 6 °C, respectively. The mass spectrometer was equipped with an electrospray ionization (ESI) source and was operated in positive ion mode. The ESI source settings for metabolite ionization were as follows: capillary voltage, 4200 V; vaporizer temperature, 350 °C; capillary temperature 330 °C; sheath gas pressure, 35 psi; and auxiliary gas pressure, 15 psi. […] Analytical data were processed using Xcalibur® software (Thermo Scientific).
(§6) The apparent kinetic inhibitory potentials (the Ki values) were estimated from the fitted curves using Enzyme Kinetics version 1.1 (Systat Software Inc.).

CYP2C19 [4] = target: T2, CYP2C19; test: CYP2C19-catalyzed [S]-mephenytoin 4′-hydroxylase inhibition in pooled human liver microsomes; conditions: for IC50: CYP2C19 (S)-mephenytoin 4′-hydroxylase, 100 µM [S]-mephenytoin
Description: as §4, §5, §6

[5] = IC50 No Pre-incubation, pooled human liver microsomes, no pre-incubation
[6] = IC50 With Pre-incubation, 30 min pre-incubation with microsomes and NADPH

T2 sequence (P33261 whole entry): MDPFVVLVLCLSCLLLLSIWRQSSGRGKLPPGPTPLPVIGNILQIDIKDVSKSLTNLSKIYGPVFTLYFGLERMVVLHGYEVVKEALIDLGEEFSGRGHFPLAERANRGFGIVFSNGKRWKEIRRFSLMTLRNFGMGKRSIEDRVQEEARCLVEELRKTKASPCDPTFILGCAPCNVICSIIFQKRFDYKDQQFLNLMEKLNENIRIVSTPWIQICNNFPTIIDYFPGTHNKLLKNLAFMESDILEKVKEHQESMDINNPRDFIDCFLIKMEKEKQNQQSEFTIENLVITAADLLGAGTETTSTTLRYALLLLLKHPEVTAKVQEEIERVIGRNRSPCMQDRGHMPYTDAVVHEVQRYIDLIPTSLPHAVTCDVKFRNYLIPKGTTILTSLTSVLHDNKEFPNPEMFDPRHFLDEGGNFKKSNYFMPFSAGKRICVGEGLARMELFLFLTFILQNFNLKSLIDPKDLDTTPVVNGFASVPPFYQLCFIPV
T1 sequence (P11712 whole entry): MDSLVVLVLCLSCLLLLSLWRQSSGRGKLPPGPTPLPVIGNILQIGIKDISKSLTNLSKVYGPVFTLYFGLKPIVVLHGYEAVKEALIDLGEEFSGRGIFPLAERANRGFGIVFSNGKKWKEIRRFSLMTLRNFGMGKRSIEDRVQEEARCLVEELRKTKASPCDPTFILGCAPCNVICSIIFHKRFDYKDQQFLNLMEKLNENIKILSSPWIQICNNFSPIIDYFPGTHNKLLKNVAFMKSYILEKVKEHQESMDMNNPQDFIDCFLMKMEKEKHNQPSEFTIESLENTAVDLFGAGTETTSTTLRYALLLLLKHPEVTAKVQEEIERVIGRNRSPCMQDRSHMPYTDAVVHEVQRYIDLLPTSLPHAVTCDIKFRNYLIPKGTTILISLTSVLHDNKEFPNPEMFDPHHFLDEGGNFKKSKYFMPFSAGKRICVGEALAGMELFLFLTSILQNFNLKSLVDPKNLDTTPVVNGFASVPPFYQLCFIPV

Ki (CYP2C9 [1]; read-out: Ki (apparent)): 3.7 µM
kinact (CYP2C9 [1]; pH 7.4, probe diclofenac (10 µM)): 0.000733 s⁻¹
Ki (CYP2C19 [2]; read-out: Ki (apparent)): 5.8 µM
kinact (CYP2C19 [2]; pH 7.4, probe [S]-mephenytoin (100 µM)): 0.0008 s⁻¹
IC50 (UGT1A1): 132 µM
IC50 (UGT1A6): 144 µM
IC50 (CYP2C9 [3]; [5]): 40.5 µM
IC50 (CYP2C9 [3]; [6]): 14.1 µM
IC50 shift at 0.5 h (CYP2C9 [3]; human, pooled human liver microsomes, pH 7.4, probe diclofenac (10 µM), 4′-hydroxylation): > 2.5
IC50 (CYP2C19 [4]; [5]): 22.7 µM
IC50 (CYP2C19 [4]; [6]): 6.1 µM
IC50 shift at 0.5 h (CYP2C19 [4]; human, pooled human liver microsomes, pH 7.4, probe [S]-mephenytoin (100 µM), 4′-hydroxylation): > 2.5
SMILES: COc1cc([C@H]2OC[C@H]3[C@@H]2CO[C@@H]3c2ccc3c(c2)OCO3)cc(OC)c1OC [Aschantin]
